Data reported in patent US20250312469A1 (CANGET BIOTEKPHARMA, priority 2024, published 2025).
Several values for one entry are separate records, joined by “and”; a condition that tells them apart may be missing. Equal entries are not always repeated.

How the values were obtained:
[1] = FL118 drug substance chemical stability (HPLC)
[2] = target: T1, USP2a (Homo sapiens, UniProt O75604); assay: ITC, Flag-USP2a; assay type: binding; design: host or cells: HEK293T
T1 sequence (O75604 1-605): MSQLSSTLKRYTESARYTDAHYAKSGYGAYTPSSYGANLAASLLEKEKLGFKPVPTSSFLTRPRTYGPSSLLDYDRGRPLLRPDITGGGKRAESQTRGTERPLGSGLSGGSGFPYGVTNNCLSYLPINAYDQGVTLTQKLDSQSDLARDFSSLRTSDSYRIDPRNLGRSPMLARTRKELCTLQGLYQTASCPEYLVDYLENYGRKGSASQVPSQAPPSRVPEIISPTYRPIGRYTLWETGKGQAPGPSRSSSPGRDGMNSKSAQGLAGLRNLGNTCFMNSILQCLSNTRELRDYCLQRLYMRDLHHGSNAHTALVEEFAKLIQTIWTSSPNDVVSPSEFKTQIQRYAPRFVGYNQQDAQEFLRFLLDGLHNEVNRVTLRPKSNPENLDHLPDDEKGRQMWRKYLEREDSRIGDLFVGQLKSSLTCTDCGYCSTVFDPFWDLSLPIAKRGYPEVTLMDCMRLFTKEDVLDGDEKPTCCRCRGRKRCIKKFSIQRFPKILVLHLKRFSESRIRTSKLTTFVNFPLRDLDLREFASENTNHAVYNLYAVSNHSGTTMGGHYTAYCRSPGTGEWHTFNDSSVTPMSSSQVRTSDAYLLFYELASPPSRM
Description: Purification of Flag-tagged DDX5 (Flag-DDX5), USP2a (Flag-USP2), UbE2T (Flag-(bE2T) and topoisomerase 1 (Top1) (Flag-Top1) proteins: Flag-DDX5, Flag-USP2, Flag-UbE2T and Flag-Topl proteins were purified from the protein expression vector-transfected HEK293T cells by using the FLAG® M Purification Kit for mammalian expression systems (CELLMM2-IKT, Sigma). Briefly, sub-confluent populations of HEK293T cells were transfected with expression vectors for Flag-DDX5, Flag-USP2, Flag-UbE2T and Flag-Top1 (OriGene) using Lipofectamine 2000 (Invitrogen) as per the manufacturer's instructions. After 72h of transfection, cells were lysed in Cell Lytic M lysis reagent (Sigma Cat #C2978) containing a protease inhibitor cocktail. […]
Replacement of the Tris-HCl buffer with the PBS buffer for purified proteins for drug-protein binding analyses using isothermal titration calorimetry (ITC): After the purified proteins were eluted from the agarose resin with 3×flag peptide, the same purified protein samples from different batches were combined. […] The PBS-resuspended protein samples were recovered from the reservoir and the protein concentrations were determined using the nano-drop reader (Bio-Rad) and BCA Protein Assay (Thermo/Pierce) for double-making sure the concentration. […]

## CCC1(O)C(=O)OCc2c1cc1n(c2=O)Cc2cc3cc4c(cc3nc2-1)OCO4 (stereo not drawn) [FL118]
[1]
  Hygroscope: 0.07% and 0.20% and 0.38%
  purity and impurity retest: still well passing the purity and impurity requirement
[2]
  Kd: 52.3 nM
